Assay results: PMC8050080, “Cannabis sativa terpenes are cannabimimetic and selectively enhance cannabinoid activity” (Scientific Reports, 2021)

Legend:
[1] = system: male and female CD-1 mice; test: Tail flick thermal latency test (antinociception); type: in vivo; settings: for tail flick antinociception (efficacy in words): terpenes 50–200 mg/kg i.p. (β-Caryophyllene 100 mg/kg), WIN55,212-2 up to 10 mg/kg, over 2 h
Procedure: Antinociception was tested using the tail flick thermal latency test. Mice were baselined by gently restraining the animal and lowering the distal portion of the tail into a water bath set to 52 °C or 47 °C where stated, and the latency to flick the tail recorded with a stopwatch, with a 10 s cutoff. Mice were then injected with compounds intraperitoneally (i.p.). Thermal latency was then assessed over a time course of 2 h, or at a single time-point as noted. […] For assays using terpene/WIN55,212-2 co-treatment, WIN55,212-2 was co-administered with terpene in the same solution.

[2] = system: male and female CD-1 mice; test: Hypothermia (core temperature, rectal thermometer); type: in vivo; settings: for hypothermia vs baseline: 30 min after i.p. 200 mg/kg terpene or 5.6 mg/kg WIN55,212-2, Fig. S2A
Procedure: Changes in core temperature were assessed using a lubricated rectal thermometer placed 1.0 cm into the mouse rectum. Temperature was assessed before treatment and 30 min post-treatment.

[3] = system: male and female CD-1 mice; test: Catalepsy ring test; type: in vivo; settings: for effect of istradefyllene pretreatment on catalepsy response: 10 mg/kg istradefyllene; for effect of istradefyllene pretreatment on catalepsy response / effect of rimonabant pretreatment on catalepsy response: 200 mg/kg terpene, Fig. 4; for effect of rimonabant pretreatment on catalepsy response: 10 mg/kg rimonabant; for catalepsy of terpene combined with WIN55,212-2: 200 mg/kg terpene + 5.6 mg/kg WIN55,212-2, Fig. 4; for catalepsy vs baseline: 15 min after i.p. 200 mg/kg terpene or 5.6 mg/kg WIN55,212-2, Fig. S2B
Procedure: Potential induction of catalepsy was assessed using the ring test as described. Mice were baselined, injected with compound, and then assessed with the ring test at 15 min post-injection. Data was represented as the percentage (%) of time in a “cataleptic” immobile state over the 5 min observation period.

WT CHO cells = test: ERK phosphorylation (Western) in WT CHO cells; type: cell-based; settings: for rimonabant sensitivity of ERK activation in WT CHO cells: 500 μM terpene after 10 μM rimonabant, Fig. 7C; for ERK phosphorylation in WT CHO cells: 500 μM terpene or 10 μM WIN55,212-2, 5 min, Fig. 7B
Procedure: WT-CHO cells were obtained from ATCC (#CCL-61). CHO cells stably expressing the human CB1 receptor were obtained from PerkinElmer (#ES-110-C) and utilized for western blots (CB1-CHO-C2) or binding assays (CB1-CHO-C3). HitHunter (CB1-CHO-cAMP) and PathHunter (CB-CHO-βarr2) assays were performed on respective CB1-CHO lines, and were a kind gift from Dr. Robert Laprairie[44]. CHO cells stably expressing cloned CB2 (CB2-CHO) were produced by electroporation with the human CB2 N-3xHA tag cDNA (GeneCopoeia). A stable expressing population was selected for with 500 μg/mL G418. CHO cells stably expressing the human mu opioid receptor were obtained from PerkinElmer (#ES-542-C). All cells were grown on 10 cm dishes in DMEM/F-12 50/50 mix w/ L-glutamine and 15 mM HEPES (Corning) containing 10% heat-inactivated fetal bovine serum, 100 units/mL penicillin, 100 units/mL streptomycin, and 400 μg/mL G418 (CB1-CHO-C2, CB1-CHO-C3, CB2-CHO, MOR-CHO); 800 μg/mL G418 (CB1-CHO-cAMP); 800 μg/mL G418 and 300 μg/mL hygromycin B (CB1-CHO-βarr2). WT CHO were grown as stated above without selection antibiotic. Cells were incubated in a humidified incubator at 37 °C with 5% CO2 and were sub-cultured every 2–3 days.
Cells were plated in 6-well plates 24 h prior to the start of the experiments. Cells were serum starved for 1 h then treated for 5 min with compound. In antagonist experiments, cells were pretreated for 5 min before agonist treatment for 5 min. Media was then aspirated, cells were placed on ice, washed with ice-cold PBS once, and lysis buffer (20 mM Tris–HCl, pH 7.4, 150 mM NaCl, 2 mM EDTA, 0.1% SDS, 1% Nonidet P-40, 0.25% deoxycholate, 1 mM sodium orthovanadate, 1 mM PMSF, 1 mM sodium fluoride, and a protease inhibitor cocktail (EMD Millipore)), was added. Cells were scraped and collected. Lysates were vortexed then centrifuged at 13 k rpm at 4 °C for 10 min. Lysates were then processed for Western blots or stored at − 80 °C.
Cell lysate protein was quantified with a modified BCA protein assay using manufacturers protocol (Bio-Rad). Samples (20–30 μg) were ran on precast gels (10% Bis–Tris, Bolt brand, from ThermoFisher). Gels were wet-transferred to nitrocellulose membranes at 30 V for at least 60 min at 4 °C. Blots were blocked with 5% non-fat dry milk in TBS for 30 min, washed 3 × for 5 min with TBS + 0.1% Tween-20 (TBST), and incubated with primary antibody overnight at 4 °C. Primary antibody: pERK and tERK (Cell Signaling) at 1:1000 dilution in 5% BSA in TBST. Blots were then washed 3 × with TBST then incubated with secondary antibodies for 90 min at room temperature. Secondary antibodies: Goat anti-Rabbit 800 W and Goat anti-Mouse 680 diluted at 1:10,000 and 1:20,000 (Licor), respectively, in 5% non-fat milk in TBST. Blots were washed 3X with TBST and 1 × with TBS, then imaged on a Licor Odyssey Fc or Azure Sapphire. Bands were analyzed using Image-J and reported as pERK/tERK normalized to the standard, or simply as pERK/tERK.

human mu opioid receptor = target: T1, human mu opioid receptor (Homo sapiens, UniProt P35372); type: cell-based; settings: 500 μM terpene or 10 μM morphine, 5 min, Fig. S13A
T1 construct: host or cells: CHO (MOR-CHO)
Procedure: Cells were plated in 6-well plates 24 h prior to the start of the experiments. Cells were serum starved for 1 h then treated for 5 min with compound. In antagonist experiments, cells were pretreated for 5 min before agonist treatment for 5 min. […] Cells were scraped and collected. Lysates were vortexed then centrifuged at 13 k rpm at 4 °C for 10 min. Lysates were then processed for Western blots or stored at − 80 °C.
CHO cells were serum starved for 1 hr, then treated with Vehicle, 10 μM morphine, or 500
μM terpene for 5 min. ERK was quantitated and reported as above. Data expressed as the
vs. Vehicle group by 1 Way ANOVA with Dunnett’s post hoc test. B) MOR-CHO cells
serum starved for 1 hr, then pre-treated with Vehicle or 10 μM naloxone for 10 min, then
treated with Vehicle, 10 μM morphine, or 500 μM terpene for 5 min. ERK quantitated,
reported, and normalized as in A (n=3 independent experiments). *, **** = p < 0.05,
0.0001 vs. terpene-alone group for each set by 1 Way ANOVA with Sidak’s post hoc test
(set up as pairwise comparisons between terpene and terpene + naloxone for each set). For
both, representative blots are shown below each graph.

CB1 = CB1 (Homo sapiens, UniProt P21554); test: biochemical; type: binding; settings: CB1-CHO membranes, Fig. 8A
[4] = system: male and female CD-1 mice; test: Open field test (hypolocomotion); settings: for mobile time of terpene combined with WIN55,212-2: 200 mg/kg terpene + 5.6 mg/kg WIN55,212-2, Fig. 5; for locomotor activity vs baseline / distance traveled and mobile time, experiment without baseline recording: 200 mg/kg terpene or 5.6 mg/kg WIN55,212-2 i.p.; for locomotor activity vs baseline: compared to baseline values, Fig. S2C,D, confounded by habituation; for distance traveled and mobile time, experiment without baseline recording: vs Vehicle, Fig. S3A,B
Procedure: All experiments were performed on male and female CD-1 (a.k.a. ICR) mice obtained from Charles River in age-matched cohorts of 5–6 weeks of age. […] The animals were maintained in an AAALAC-accredited vivarium at the University of Arizona in temperature and humidity-controlled rooms on a 12-h light/dark cycle. Standard chow and water were available ad libitum. […] Mice were randomized to treatment group by randomization of mice to cages upon arrival, and block random assignment of cages to treatment group. The experimenter was blinded to treatment group by the delivery of coded drug vials. The groups were not decoded until all data had been acquired.
The open field test was used to determine potential hypolocomotive properties induced by terpene and cannabinoid treatment. The open field box was a white box with an open top and black floor. The tracking area was 30 cm × 28 cm. Mice were baselined by placing the mouse in the center of the box and recording from a video camera ~ 1.5 m above for a period of 5 min. Mice were then injected with compound and placed back in the open field box 10–15 min post-injection. In follow-up experiments, mice were not baselined, injected with compound, and placed in the open field box from 10 to 15 min. The total distance traveled and mobile time of mice were analyzed using AnyMaze software.

T1 sequence (P35372 whole entry): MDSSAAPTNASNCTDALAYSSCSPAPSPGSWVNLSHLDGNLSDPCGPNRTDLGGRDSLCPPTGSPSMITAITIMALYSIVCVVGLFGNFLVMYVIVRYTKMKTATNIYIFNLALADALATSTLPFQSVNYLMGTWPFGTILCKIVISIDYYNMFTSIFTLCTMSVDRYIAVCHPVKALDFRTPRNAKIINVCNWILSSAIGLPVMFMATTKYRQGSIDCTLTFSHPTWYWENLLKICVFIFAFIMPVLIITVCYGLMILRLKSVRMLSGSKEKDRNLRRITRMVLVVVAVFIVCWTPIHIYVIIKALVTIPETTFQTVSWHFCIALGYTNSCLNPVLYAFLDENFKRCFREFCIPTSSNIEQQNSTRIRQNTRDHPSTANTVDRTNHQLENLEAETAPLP
Chain of CB1 (P21554 whole entry): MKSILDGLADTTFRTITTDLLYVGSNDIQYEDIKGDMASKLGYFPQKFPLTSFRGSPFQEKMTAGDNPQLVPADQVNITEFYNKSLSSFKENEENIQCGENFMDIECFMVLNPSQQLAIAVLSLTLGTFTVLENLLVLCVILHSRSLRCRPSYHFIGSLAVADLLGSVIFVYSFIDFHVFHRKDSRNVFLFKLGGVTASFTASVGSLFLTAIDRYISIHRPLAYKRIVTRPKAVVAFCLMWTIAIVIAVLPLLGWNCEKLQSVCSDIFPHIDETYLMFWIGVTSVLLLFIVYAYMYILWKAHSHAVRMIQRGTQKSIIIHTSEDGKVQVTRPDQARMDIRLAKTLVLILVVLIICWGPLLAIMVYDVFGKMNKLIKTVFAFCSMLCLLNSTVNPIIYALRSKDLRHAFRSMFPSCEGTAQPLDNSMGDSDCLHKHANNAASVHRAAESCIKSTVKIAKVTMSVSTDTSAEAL

Row | SMILES | tail flick antinociception (efficacy in words) ([1]; Fig. S1) | hypothermia vs baseline [2] | effect of istradefyllene pretreatment on catalepsy response [3] | effect of rimonabant pretreatment on catalepsy response [3] | catalepsy of terpene combined with WIN55,212-2 [3] | catalepsy vs baseline [3] | rimonabant sensitivity of ERK activation in WT CHO cells (WT CHO cells) | ERK phosphorylation in WT CHO cells (WT CHO cells) | ERK stimulation in MOR-CHO cells (human mu opioid receptor) | competition for the orthosteric binding site against CP55,940 (CB1) | mobile time of terpene combined with WIN55,212-2 [4] | locomotor activity vs baseline [4] | distance traveled and mobile time, experiment without baseline recording [4] | other results
1 | C=C1CCC2CC1C2(C)C (stereo not drawn) [β-Pinene] | low efficacy but not in a dose-dependent manner | induced significant hypothermia | completely blocked | no impact | additive effects | significant increases in cataleptic behavior | rimonabant-insensitive | activated ERK | produced ERK stimulation | little to no competition | further decrease in mobile time | significant reductions in locomotor activity | reductions in distance traveled and mobile time | effect of istradefyllene pretreatment on mobile time ([4]; 10 mg/kg istradefyllene, 200 mg/kg terpene, Fig. 5): significant reversal; effect of istradefyllene pretreatment on distance traveled ([4]; 10 mg/kg istradefyllene, 200 mg/kg terpene, Fig. S7): istradefyllene reversal
2 | C=CC(C)(O)CCC=C(C)C (stereo not shown) [Linalool] | dose-dependent low efficacy | induced significant hypothermia | partially blocked | small but significant reduction | – | significant increases in cataleptic behavior | – | did not cause ERK phosphorylation | no response | little to no competition | further decrease in mobile time | significant reductions in locomotor activity | reductions in distance traveled and mobile time | effect of rimonabant pretreatment on tail flick antinociception ([1]; 200 mg/kg terpene i.p. after 10 mg/kg rimonabant, Fig. 2): fully blocked by rimonabant; tail flick, Linalool combined with WIN55,212-2, females ([1]; female mice, 200 mg/kg + 5.6 mg/kg WIN55,212-2, Fig. S8A): a delay in response and no potentiation over Linalool alone; tail flick, Linalool combined with WIN55,212-2, males ([1]; male mice, 200 mg/kg + 5.6 mg/kg WIN55,212-2, Fig. S8A): greater additive effects of combining both that occurred earlier in the time course; hypolocomotion, antagonist reversal, females ([4]; female mice, 200 mg/kg Linalool, Fig. S8B-C): istradefyllene reversal; hypolocomotion, antagonist reversal, males ([4]; male mice, 200 mg/kg Linalool, Fig. S8B-C): rimonabant reversal
3 | C/C1=C\CC/C(C)=C/CC(C)(C)/C=C/C1 [α-Humulene] | – | induced significant hypothermia | completely blocked | small but significant reduction | additive effects | significant increases in cataleptic behavior | rimonabant-insensitive | activated ERK | produced ERK stimulation | some competition and semi-biphasic properties | further decrease in mobile time | significant reductions in locomotor activity | did not result in significant reductions | efficacy in the tail flick assay ([1]; terpene 50–200 mg/kg i.p., dose-dependent, Fig. S1): 40–50%; effect of istradefyllene pretreatment on hypothermia ([2]; 10 mg/kg istradefyllene, 200 mg/kg terpene, Fig. 3): partially reversed; effect of rimonabant pretreatment on hypothermia ([2]; 10 mg/kg rimonabant, 200 mg/kg terpene or 5.6 mg/kg WIN55,212-2, Fig. 3, S4C): partially reverse
